Results on 25 compounds are retold here after patent US20130210625A1, “SPIROHETEROCYCLIC PYRROLIDINE DERIVATIVES BASED PESTICIDES” (SYNGENTA CROP PROTECTION LLC, priority 2010, published 2013).

Some results are limits rather than exact numbers.

Series [1] concerns Myzus persicae (Green Peach Aphid). Nature of the series: Activity against Myzus persicae on cabbage plants, feeding/residual contact activity (Example B5). In kind it is in vivo. The note with it: 144 h, infested cabbage plants, spray chamber, mortality 6 days after treatment. The procedure:
Activity Against Myzus persicae (Green Peach Aphid) (Mixed Population, Feeding/Residual Contact Activity, Plant Damage Evaluation)
Cabbage plants infested with a mixed population of Myzus persicae are treated with diluted test solutions of the compounds in a spray chamber. 6 days after treatment, samples are checked for mortality and for plant damage (phytotoxicity), visual assessment being made using a 0-100% rating scale (100%=total damage to plant; 0%=no damage to plant).

The test system is the same in series [2]. Nature of the series: Activity against Myzus persicae, mixed population, feeding/residual contact activity, preventive (Example B1). The arrangement: concentration or dose not given beside the values. The format is in vivo. The note with it: foliar, 144 h, sunflower leaf discs sprayed, mortality checked after 6 days. The procedure:
Activity Against Myzus persicae (Green Peach Aphid) (Mixed Population, Feeding/Residual Contact Activity, Preventive)
Sunflower leaf discs are placed on agar in a 24-well microtiter plate and sprayed with test solutions. After drying, the leaf discs are infested with an aphid population of mixed ages. After an incubation period of 6 days, samples are checked for mortality and special effects (e.g. phytotoxicity).

Series [3] concerns Tetranychus urticae (Two-Spotted Spider Mite). Nature of the series: Activity against Tetranychus urticae, mixed population, feeding/residual contact activity, preventive (Example B4). In kind it is in vivo. The note with it: foliar, 192 h, bean leaf discs sprayed, egg, larval and adult mortality 8 days later. An excerpt:
Activity Against Tetranychus urticae (Two-Spotted Spider Mite) (Mixed Population, Feeding/Residual Contact Activity, Preventive)
Bean leaf discs on agar in 24-well microtiter plates are sprayed with test solutions. After drying, the leaf discs are infested with mite populations of mixed ages. 8 days later, discs are checked for egg mortality, larval mortality, and adult mortality.

Series [4] has as its system Myzus persicae (Green Peach Aphid). Nature of the series: Activity against Myzus persicae, mixed population, systemic/feeding activity, curative (Example B2). In kind it is in vivo. The note with it: 144 h, roots of infested pea seedlings in test solution, mortality 6 days after introduction. The source says:
Activity Against Myzus persicae (Green Peach Aphid) (Mixed Population, Systemic/Feeding Activity, Curative)
Roots of pea seedlings, infested with an aphid population of mixed ages, are placed directly in the test solutions. 6 days after introduction, samples are checked for mortality and special effects on the plant.

The subject of series [5] is Aphis craccivora (Cowpea Aphid). Nature of the series: Activity against Aphis craccivora, mixed population, contact/feeding (Example B9). In kind it is in vivo. The following applies: 200 ppm; infested pea seedlings, spray chamber; mortality 6 days after treatment. The procedure:
Activity Against Aphis craccivora (Cowpea Aphid) (Mixed Population, Contact/Feeding)
Pea seedlings, infested with an aphid population of mixed ages, are treated (2 replicates) with diluted test solutions in a spray chamber. 6 days after treatment, samples are checked for mortality.

The term melting point denotes the temperature, or range, at which the solid turns liquid. Take `CCOC(=O)OC1=C(c2cc(C(C)=O)ccc2C)C(=O)NC12CCN(OC)CC2` [Compound P1.2]: the melting point was in the range of 185 to 187 °C.
Broadly, the pest or weed control is the degree to which the test organism was suppressed or injured, in per cent. Regarding `C=Cc1cc(C)cc(C)c1C1=C(OC(=O)OCC)C2(CCN(OC)CC2)NC1=O` [Compound P1.3], the pest or weed control at 200 ppm in series [1] is not below 80%. In series [2], this compound had a pest or weed control of more than 80%. Besides, the pest or weed control at 400 ppm in series [3] and in series [4] was more than 80% in each case.
As to `C=Cc1cc(C)cc(C)c1C1=C(OC(=O)OCC)C2(CCN(OC)CC2)N(C)C1=O` [Compound P1.4], in series [1], the pest or weed control at 200 ppm is not below 80%. Moreover, the pest or weed control in series [2] is more than 80%. Moreover, in series [3], the pest or weed control at 400 ppm was more than 80%.
With `C=Cc1cc(C)cc(C)c1C1=C(OC(=O)OCC)C2(CCN(OC)CC2)N(OC2CCCO2)C1=O` (stereo not shown) [Compound P1.5, Carbonic acid 3-(2,4-dimethyl-6-vinyl-phenyl)-8-methoxy-2-oxo-1-(tetrahydro-furan-2-yloxy)-1,8-diaza-spiro[4.5]dec-3-en-4-yl ester ethyl ester], in series [1], the pest or weed control at 200 ppm was not below 80%. The compound also displayed a pest or weed control in series [2] of more than 80%. The pest or weed control at 400 ppm in series [3] is more than 80%.
For `C=Cc1cc(C)c(C2=C(OC(=O)OCC)C3(CCN(OC)CC3)N(C)C2=O)c(C)c1` [Compound P1.6], the activity result in series [5] is “over 80%”. The pest or weed control at 200 ppm in series [1] is not below 80%.
As to `C#Cc1cc(C)cc(C)c1C1=C(OC(=O)OCC)C2(CCN(OC)CC2)NC1=O` [Compound P1.7], the pest or weed control at 200 ppm in series [1] was not below 80%. The compound also gave a pest or weed control in series [2] of more than 80%. The pest or weed control at 400 ppm in series [3] and in series [4] was more than 80% each time.
Turning to `C#Cc1cc(C)cc(C)c1C1=C(OC(=O)OCC)C2(CCN(OC)CC2)N(C)C1=O` [Compound P1.8], the pest or weed control at 200 ppm in series [1] was not below 80%. Besides, the pest or weed control in series [2] was more than 80%. Further, the pest or weed control at 400 ppm in series [3] and in series [4] was more than 80% throughout.
In the case of `C#Cc1cc(C)cc(C)c1C1=C(OC(=O)OCC)C2(CCN(OC)CC2)N(OC2CCCO2)C1=O` (stereo not shown) [Compound P1.9], the pest or weed control at 200 ppm in series [1] is not below 80%. In addition, the pest or weed control in series [2] was more than 80%. Further, the pest or weed control at 400 ppm in series [3] and in series [4] was more than 80% throughout.
With `C#Cc1ccc(C)cc1C1=C(OC(=O)OCC)C2(CCN(OC)CC2)NC1=O` [Compound P1.10], the pest or weed control at 200 ppm in series [1] is not below 80%.
`C#Cc1ccc(C)cc1C1=C(OC(=O)OCC)C2(CCN(OC)CC2)N(OC)C1=O` [Compound P1.11] came in with a pest or weed control at 200 ppm in series [1] not below 80%. This compound also displayed a pest or weed control in series [2] of more than 80%. Besides, the pest or weed control at 400 ppm in series [3] is more than 80%.
`C#Cc1cc(C)c(C2=C(OC(=O)OCC)C3(CCN(OC)CC3)NC2=O)c(C)c1` [Compound P1.12]: the pest or weed control at 200 ppm in series [1] is not below 80%. Moreover, in series [2], the pest or weed control is more than 80%. In series [4], this compound displayed a pest or weed control at 400 ppm of more than 80%.
Compound `C#Cc1cc(C)c(C2=C(OC(=O)OCC)C3(CCN(OC)CC3)N(C)C2=O)c(C)c1` [Compound P1.13] returned a pest or weed control at 200 ppm in series [1] not below 80%. In series [2], the pest or weed control is more than 80%. The compound also gave a pest or weed control at 400 ppm in series [4] of more than 80%.
In the case of `CC#Cc1cc(C)c(C2=C(OC(=O)OCC)C3(CCN(OC)CC3)N(C)C2=O)c(C)c1` [Compound P1.14], the pest or weed control at 200 ppm in series [1] was not below 80%. In addition, the pest or weed control at 400 ppm in series [3] and in series [4] was more than 80% in each case.
`CON1CCC2(CC1)NC(=O)C(c1cc(C(C)=O)ccc1C)C2=O` (stereo not shown) [Compound P2.1]: the melting point lay in the range of 218 to 220 °C.
On to `COC(=O)c1ccc(C)c(C2C(=O)NC3(CCN(OC)CC3)C2=O)c1` (stereo not shown) [Compound P2.2], for which the melting point is 245 to 247 °C.
Consider `C=Cc1cc(C)cc(C)c1C1=C(O)C2(CCN(OC)CC2)NC1=O` [Compound P2.3, 3-(2,4-Dimethyl-6-vinyl-phenyl)-4-hydroxy-8-methoxy-1,8-diaza-spiro[4.5]dec-3-en-2-one], for which the pest or weed control at 200 ppm in series [1] is not below 80%. Further, in series [2], the pest or weed control was more than 80%. This compound showed a pest or weed control at 400 ppm in series [3] of more than 80%.
For the compound `C=Cc1cc(C)cc(C)c1C1=C(O)C2(CCN(OC)CC2)N(C)C1=O` [Compound P2.4, 3-(2,4-Dimethyl-6-vinyl-phenyl)-4-hydroxy-8-methoxy-1-methyl-1,8-diaza-spiro[4.5]dec-3-en-2-one], the pest or weed control at 200 ppm in series [1] was not below 80%.
In turn, `C=Cc1cc(C)cc(C)c1C1=C(O)C2(CCN(OC)CC2)N(OC2CCCO2)C1=O` (stereo not shown) [Compound P2.5, 3-(2,4-Dimethyl-6-vinyl-phenyl)-4-hydroxy-8-methoxy-1-(tetrahydro-furan-2-yloxy)-1,8-diaza-spiro[4.5]dec-3-en-2-one] returned a pest or weed control at 200 ppm in series [1] not below 80%.
For the compound `C#Cc1cc(C)cc(C)c1C1C(=O)NC2(CCN(OC)CC2)C1=O` (stereo not shown) [Compound P2.6], in series [1], the pest or weed control at 200 ppm is not below 80%. This compound also yielded a pest or weed control in series [2] of more than 80%. The pest or weed control at 400 ppm in series [3] and in series [4] was more than 80% in each case.
In turn, `C#Cc1cc(C)cc(C)c1C1C(=O)N(C)C2(CCN(OC)CC2)C1=O` (stereo not shown) [Compound P2.7] displayed a pest or weed control at 200 ppm in series [1] not below 80%. Further, the pest or weed control in series [2] was more than 80%. In series [3], this compound displayed a pest or weed control at 400 ppm of more than 80%.
As to `C#Cc1cc(C)cc(C)c1C1C(=O)N(OC2CCCO2)C2(CCN(OC)CC2)C1=O` (stereo not shown) [Compound P2.8], the pest or weed control at 200 ppm in series [1] was not below 80%. The same compound registered a pest or weed control in series [2] of more than 80%. Moreover, the pest or weed control at 400 ppm in series [3] and in series [4] was more than 80% in each case.
Consider `C#Cc1ccc(C)cc1C1C(=O)N(OC)C2(CCN(OC)CC2)C1=O` (stereo not shown) [Compound P2.10], for which, in series [1], the pest or weed control at 200 ppm is not below 80%.
For `C#Cc1cc(C)c(C2C(=O)NC3(CCN(OC)CC3)C2=O)c(C)c1` (stereo not shown) [Compound P2.11], the pest or weed control at 200 ppm in series [1] is not below 80%. Also, the pest or weed control in series [2] was more than 80%. The same compound yielded a pest or weed control at 400 ppm in series [4] of more than 80%.
As to `C#Cc1cc(C)c(C2=C(O)C3(CCN(OC)CC3)N(C)C2=O)c(C)c1` [Compound P2.12, 3-(4-Ethynyl-2,6-dimethyl-phenyl)-4-hydroxy-8-methoxy-1-methyl-1,8-diaza-spiro[4.5]dec-3-en-2-one], the pest or weed control at 200 ppm in series [1] was not below 80%. Besides, in series [2], the pest or weed control is more than 80%. The pest or weed control at 400 ppm in series [4] was more than 80%.
With `CC#Cc1cc(C)c(C2=C(O)C3(CCN(OC)CC3)N(C)C2=O)c(C)c1` [Compound P2.13, 3-(2,6-Dimethyl-4-prop-1-ynyl-phenyl)-4-hydroxy-8-methoxy-1-methyl-1,8-diaza-spiro[4.5]dec-3-en-2-one], the pest or weed control at 200 ppm in series [1] was not below 80%.
